Molecules are shown by their SMILES. Values joined by “and” are separate entries in the source; they are usually repeats but may differ in a detail not shown here. Identical values can stand only once.

The target in assay [1] is PIK3CD (Human) (UniProt O00329). As to the kind of experiment: Cell-Based Assay. The settings on record: jurkat.
The target in assay [2] is PIK3CB (Human) (UniProt P42338). In words: Cell-Based Assay. The settings on record: jurkat.
The target in assay [3] is PIK3CA (human) (UniProt P42336). In words: Cell-Based Assay. The settings on record: jurkat.
PIK3CA (human), sequence (P42336 whole entry, looked up): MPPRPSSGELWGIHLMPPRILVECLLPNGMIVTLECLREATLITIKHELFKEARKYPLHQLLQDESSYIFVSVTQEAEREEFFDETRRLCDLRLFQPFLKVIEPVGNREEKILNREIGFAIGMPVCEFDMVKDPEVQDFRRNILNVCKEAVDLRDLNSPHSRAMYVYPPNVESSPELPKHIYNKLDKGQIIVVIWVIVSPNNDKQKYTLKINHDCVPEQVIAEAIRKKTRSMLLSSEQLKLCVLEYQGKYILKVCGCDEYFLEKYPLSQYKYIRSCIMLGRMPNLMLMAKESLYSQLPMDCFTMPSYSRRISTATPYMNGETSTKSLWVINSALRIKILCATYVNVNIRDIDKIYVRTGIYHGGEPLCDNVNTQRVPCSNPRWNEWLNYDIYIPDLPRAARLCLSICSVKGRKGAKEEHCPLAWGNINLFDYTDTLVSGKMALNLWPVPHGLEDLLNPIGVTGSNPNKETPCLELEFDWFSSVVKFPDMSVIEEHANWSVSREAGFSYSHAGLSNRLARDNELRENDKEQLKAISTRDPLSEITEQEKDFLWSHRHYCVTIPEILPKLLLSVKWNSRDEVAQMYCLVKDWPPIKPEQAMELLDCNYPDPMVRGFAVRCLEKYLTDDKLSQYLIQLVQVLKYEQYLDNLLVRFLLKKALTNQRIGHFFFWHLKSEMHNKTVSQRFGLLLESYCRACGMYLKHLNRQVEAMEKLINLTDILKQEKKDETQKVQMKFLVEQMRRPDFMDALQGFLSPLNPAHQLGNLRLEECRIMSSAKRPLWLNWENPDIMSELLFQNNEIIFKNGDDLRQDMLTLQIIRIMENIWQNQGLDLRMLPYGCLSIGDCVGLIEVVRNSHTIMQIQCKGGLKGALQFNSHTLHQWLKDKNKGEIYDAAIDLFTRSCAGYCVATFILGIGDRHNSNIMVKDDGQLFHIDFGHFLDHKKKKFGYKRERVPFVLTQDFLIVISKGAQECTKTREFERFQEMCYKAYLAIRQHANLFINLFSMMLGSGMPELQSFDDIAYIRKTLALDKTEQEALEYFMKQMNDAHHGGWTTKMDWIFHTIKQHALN
Assay [4] deals with PIK3CB (Human) (UniProt P42338). As to the kind of experiment: Cell-Based Assay. The note with it: jurkat. This is another data set of the same source.
In assay [5] the target is PIK3CD (Human) (UniProt O00329). As to the kind of experiment: Enzyme Assay.
In assay [6] the target is PIK3CG (human) (UniProt P48736). As to the kind of experiment: Enzyme Assay.
PIK3CG (human), sequence (P48736 whole entry, looked up): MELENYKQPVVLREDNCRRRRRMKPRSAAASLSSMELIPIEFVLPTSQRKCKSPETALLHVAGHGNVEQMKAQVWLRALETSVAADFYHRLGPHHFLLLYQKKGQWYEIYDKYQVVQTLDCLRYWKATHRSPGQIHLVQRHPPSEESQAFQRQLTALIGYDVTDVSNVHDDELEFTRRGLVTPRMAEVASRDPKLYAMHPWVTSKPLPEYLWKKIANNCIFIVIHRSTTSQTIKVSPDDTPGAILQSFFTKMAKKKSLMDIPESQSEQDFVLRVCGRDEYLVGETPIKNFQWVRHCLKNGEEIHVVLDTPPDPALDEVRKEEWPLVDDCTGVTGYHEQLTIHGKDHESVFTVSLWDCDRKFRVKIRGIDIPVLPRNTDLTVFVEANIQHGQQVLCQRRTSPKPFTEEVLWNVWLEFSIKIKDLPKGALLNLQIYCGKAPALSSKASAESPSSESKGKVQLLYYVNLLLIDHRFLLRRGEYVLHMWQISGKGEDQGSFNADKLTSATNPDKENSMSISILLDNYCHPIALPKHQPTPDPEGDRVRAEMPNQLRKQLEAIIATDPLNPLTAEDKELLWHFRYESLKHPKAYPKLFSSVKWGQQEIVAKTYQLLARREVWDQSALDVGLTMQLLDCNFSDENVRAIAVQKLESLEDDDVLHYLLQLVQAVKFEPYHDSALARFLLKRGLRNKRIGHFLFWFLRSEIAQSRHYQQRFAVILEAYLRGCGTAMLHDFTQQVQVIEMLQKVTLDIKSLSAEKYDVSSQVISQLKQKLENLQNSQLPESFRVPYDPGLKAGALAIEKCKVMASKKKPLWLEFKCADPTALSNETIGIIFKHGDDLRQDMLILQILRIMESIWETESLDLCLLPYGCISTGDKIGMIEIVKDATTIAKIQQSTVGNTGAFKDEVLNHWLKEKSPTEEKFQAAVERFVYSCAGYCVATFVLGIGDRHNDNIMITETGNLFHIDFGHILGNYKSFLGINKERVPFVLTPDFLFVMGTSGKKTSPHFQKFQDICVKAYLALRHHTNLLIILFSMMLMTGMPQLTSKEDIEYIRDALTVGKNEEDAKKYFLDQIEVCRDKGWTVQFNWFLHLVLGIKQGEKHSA
For assay [7], the target named is PIK3CA (human), P42336 [I800L]. As to the kind of experiment: Enzyme Assay.
PIK3CA (human), P42336 [I800L], sequence (P42336 whole entry I800L, looked up): as the sequence (P42336 whole entry, looked up) above, with I800L counted along it
Assay [8] deals with PIK3CB (Human) (UniProt P42338). As to the kind of experiment: Enzyme Assay.
Assay [9] addresses PIK3CA (human) (UniProt P42336). As to the kind of experiment: Enzyme Assay.

PIK3CD (Human), sequence (O00329 whole entry, looked up): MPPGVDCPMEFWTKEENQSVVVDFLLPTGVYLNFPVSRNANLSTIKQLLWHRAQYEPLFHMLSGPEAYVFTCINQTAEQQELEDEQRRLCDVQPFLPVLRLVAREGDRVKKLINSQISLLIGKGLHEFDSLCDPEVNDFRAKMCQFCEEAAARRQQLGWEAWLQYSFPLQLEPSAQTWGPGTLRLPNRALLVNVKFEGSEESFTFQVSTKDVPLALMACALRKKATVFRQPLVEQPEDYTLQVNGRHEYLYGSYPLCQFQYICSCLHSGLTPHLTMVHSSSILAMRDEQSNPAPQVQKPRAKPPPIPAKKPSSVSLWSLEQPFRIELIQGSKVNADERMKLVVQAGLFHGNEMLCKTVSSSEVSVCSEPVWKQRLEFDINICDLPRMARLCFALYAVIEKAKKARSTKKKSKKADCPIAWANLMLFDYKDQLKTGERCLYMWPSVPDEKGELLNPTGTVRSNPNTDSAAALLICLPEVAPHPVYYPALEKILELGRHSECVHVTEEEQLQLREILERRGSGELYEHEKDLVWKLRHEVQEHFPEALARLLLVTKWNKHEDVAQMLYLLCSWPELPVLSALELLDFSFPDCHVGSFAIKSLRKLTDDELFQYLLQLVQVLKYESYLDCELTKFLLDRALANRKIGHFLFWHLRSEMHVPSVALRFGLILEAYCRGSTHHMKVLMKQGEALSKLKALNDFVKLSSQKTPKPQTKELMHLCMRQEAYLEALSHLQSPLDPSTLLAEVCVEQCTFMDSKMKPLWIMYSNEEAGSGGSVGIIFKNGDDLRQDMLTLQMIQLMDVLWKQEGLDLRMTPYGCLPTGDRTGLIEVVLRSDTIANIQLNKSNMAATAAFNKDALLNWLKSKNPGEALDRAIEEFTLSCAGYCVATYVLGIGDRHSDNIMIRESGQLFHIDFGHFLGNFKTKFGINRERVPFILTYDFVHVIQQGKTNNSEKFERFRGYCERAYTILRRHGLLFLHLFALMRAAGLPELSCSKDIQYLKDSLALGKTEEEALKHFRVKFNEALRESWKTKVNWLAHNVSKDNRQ
PIK3CB (Human), sequence (P42338 whole entry, looked up): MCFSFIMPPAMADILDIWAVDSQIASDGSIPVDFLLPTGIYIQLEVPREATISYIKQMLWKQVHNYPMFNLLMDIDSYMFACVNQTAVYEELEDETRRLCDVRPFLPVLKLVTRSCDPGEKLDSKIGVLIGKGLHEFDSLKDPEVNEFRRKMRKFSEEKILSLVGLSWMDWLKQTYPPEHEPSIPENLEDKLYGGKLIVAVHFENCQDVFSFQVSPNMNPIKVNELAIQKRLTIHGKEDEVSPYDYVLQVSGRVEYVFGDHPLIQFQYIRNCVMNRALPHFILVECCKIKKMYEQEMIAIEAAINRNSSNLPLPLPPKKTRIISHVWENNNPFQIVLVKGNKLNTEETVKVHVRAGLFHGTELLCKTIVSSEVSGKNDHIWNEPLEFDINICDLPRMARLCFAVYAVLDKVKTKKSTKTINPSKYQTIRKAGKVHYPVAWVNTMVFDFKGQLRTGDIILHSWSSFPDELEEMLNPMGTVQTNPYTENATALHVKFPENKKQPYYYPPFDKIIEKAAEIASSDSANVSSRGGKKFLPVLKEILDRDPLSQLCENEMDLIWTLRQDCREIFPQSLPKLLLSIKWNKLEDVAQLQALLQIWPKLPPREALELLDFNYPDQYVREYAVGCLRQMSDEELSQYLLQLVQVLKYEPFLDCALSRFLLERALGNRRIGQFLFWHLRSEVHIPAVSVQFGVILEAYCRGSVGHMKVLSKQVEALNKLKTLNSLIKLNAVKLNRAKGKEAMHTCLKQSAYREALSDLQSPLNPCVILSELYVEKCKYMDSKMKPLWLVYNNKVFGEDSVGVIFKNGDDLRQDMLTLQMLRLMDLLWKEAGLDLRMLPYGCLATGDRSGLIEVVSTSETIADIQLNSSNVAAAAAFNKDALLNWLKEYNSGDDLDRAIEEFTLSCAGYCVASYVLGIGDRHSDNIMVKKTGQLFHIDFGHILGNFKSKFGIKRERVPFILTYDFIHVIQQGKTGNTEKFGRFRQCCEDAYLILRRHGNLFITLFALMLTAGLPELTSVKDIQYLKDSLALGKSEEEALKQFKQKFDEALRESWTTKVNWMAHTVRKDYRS

Take `COC(=O)Nc1ccc(-c2nc(N3CCOCC3)c3cnn(C4CCN(C(=O)OC)CC4)c3n2)cc1`: the half-maximal inhibitory concentration (IC50) in [1] is 3.3 µM and 0.98 µM; in assay [2], 10 µM; in assay [3], 1.2 µM; in [4] it was 9.2 µM; in assay [5], 1.29 µM; in assay [6], 1.87 µM. In addition, the IC50 in assay [8] is greater than 12 µM; in assay [9], 0.886 µM. Moreover, the dissociation constant (Kd) in assay [7] was determined as 0.19 µM; in assay [9], 0.14 µM.

A word on the IC50: it is the concentration that inhibits the measured activity by half. The low end stands for greater potency in that assay, the high end for weaker potency in that assay. A word on the Kd: it is the equilibrium constant for the complex coming apart. High values mean lower affinity, low ones higher affinity.

Source of the values: the Kinase Knowledgebase extract (Sharma et al. 2016).
